In PubChem BioAssay (NCI):
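Method: 48-hour compound exposure of cells in 96-well plates, five concentrations, linear interpolation of endpoints. The concentration for 50% growth inhibition is given as GI50. TGI denotes the concentration required for complete inhibition of growth.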

How the values were obtained:
Assay in all cases: NCI-60 cell line screen, 48 h
[1] = system: 786-0 renal
[2] = system: A498 renal
[3] = system: A549 NSCLC
[4] = system: ACHN renal
[5] = system: CAKI-1 renal
[6] = system: CCRF-CEM leukemia
[7] = system: COLO 205 colon
[8] = system: DU-145 prostate
[9] = system: EKVX NSCLC
[10] = system: HCC-2998 colon
[11] = system: HCT-116 colon
[12] = system: HCT-15 colon
[13] = system: HL-60(TB) leukemia
[14] = system: HOP-62 NSCLC
[15] = system: HOP-92 NSCLC
[16] = system: HS 578T breast
[17] = system: IGROV1 ovarian
[18] = system: K-562 leukemia
[19] = system: KM12 colon
[20] = system: LOX IMVI melanoma
[21] = system: M14 melanoma
[22] = system: MALME-3M melanoma
[23] = system: MCF7 breast
[24] = system: MDA-MB-231 breast
[25] = system: MDA-MB-435
[26] = system: MOLT-4 leukemia
[27] = system: NCI-H226 lung
[28] = system: NCI-H23 lung
[29] = system: NCI-H460 lung
[30] = system: NCI/ADR-RES ovarian
[31] = system: OVCAR-3 ovarian
[32] = system: OVCAR-4 ovarian
[33] = system: OVCAR-5 ovarian
[34] = system: OVCAR-8 ovarian
[35] = system: PC-3 prostate
[36] = system: RPMI-8226 leukemia
[37] = system: RXF 393 renal
[38] = system: SF-268 CNS
[39] = system: SF-295 CNS
[40] = system: SF-539 CNS
[41] = system: SK-MEL-28 melanoma
[42] = system: SK-MEL-5 melanoma
[43] = system: SK-OV-3 ovarian
[44] = system: SN12C renal
[45] = system: SNB-19 CNS
[46] = system: SNB-75 CNS
[47] = system: SR leukemia
[48] = system: SW-620 colon
[49] = system: T-47D breast
[50] = system: U251 CNS
[51] = system: UACC-257 melanoma
[52] = system: UACC-62 melanoma
[53] = system: UO-31 renal
[54] = system: HT29 colon
[55] = system: SK-MEL-2 melanoma
[56] = system: TK-10 renal
[57] = system: BT-549 breast
[58] = system: NCI-H522 lung

Compound: O=C(/C=C/c1ccc2c(c1)OCO2)c1ccccc1
- GI50 [1]: 14.8 µM
- TGI [1]: 31 µM
- GI50 [2]: 12.4 µM
- TGI [2]: 25.4 µM
- GI50 [3]: 18.7 µM
- TGI [3]: 49 µM
- GI50 [4]: 17.5 µM
- TGI [4]: 40.9 µM
- GI50 [5]: 6.9 µM
- TGI [5]: 23 µM
- GI50 [6]: 19.1 µM
- TGI [6]: 81.2 µM
- GI50 [7]: 19.1 µM
- TGI [7]: 36.7 µM
- GI50 [8]: 10.2 µM
- TGI [8]: 22.1 µM
- GI50 [9]: 15.1 µM
- TGI [9]: 31.1 µM
- GI50 [10]: 16 µM
- TGI [10]: 30.2 µM
- GI50 [11]: 3.74 µM
- TGI [11]: 14.1 µM
- GI50 [12]: 16.6 µM
- TGI [12]: > 100 µM
- GI50 [13]: 17.8 µM
- TGI [13]: 61.6 µM
- GI50 [14]: 23.9 µM
- TGI [14]: 80.9 µM
- GI50 [15]: 15.4 µM
- TGI [15]: 41.3 µM
- GI50 [16]: 11.8 µM
- TGI [16]: 45.6 µM
- GI50 [17]: 4.43 µM
- TGI [17]: 27.7 µM
- GI50 [18]: 4.42 µM
- TGI [18]: > 100 µM
- GI50 [19]: 3.02 µM
- TGI [19]: 14 µM
- GI50 [20]: 12.6 µM
- TGI [20]: 25.9 µM
- GI50 [21]: 13.2 µM
- TGI [21]: 29.8 µM
- GI50 [22]: 13.9 µM
- TGI [22]: 37.9 µM
- GI50 [23]: 4.02 µM
- TGI [23]: 30 µM
- GI50 [24]: 24.4 µM
- TGI [24]: 75.6 µM
- GI50 [25]: 3.58 µM
- TGI [25]: 19.3 µM
- GI50 [26]: 8.09 µM
- TGI [26]: > 100 µM
- GI50 [27]: 23.4 µM
- TGI [27]: 78.5 µM
- GI50 [28]: 17.4 µM
- TGI [28]: 38.6 µM
- GI50 [29]: 13.9 µM
- TGI [29]: 37.5 µM
- GI50 [30]: 20.6 µM
- TGI [30]: 62.3 µM
- GI50 [31]: 4.71 µM
- TGI [31]: 17.9 µM
- GI50 [32]: 24.8 µM
- TGI [32]: > 100 µM
- GI50 [33]: 16.2 µM
- TGI [33]: 36.8 µM
- GI50 [34]: 17.4 µM
- TGI [34]: 58.5 µM
- GI50 [35]: 22.5 µM
- TGI [35]: 58.4 µM
- GI50 [36]: 4.84 µM
- TGI [36]: > 100 µM
- GI50 [37]: 14.3 µM
- TGI [37]: 28.7 µM
- GI50 [38]: 15 µM
- TGI [38]: 35.6 µM
- GI50 [39]: 11.5 µM
- TGI [39]: 28.8 µM
- GI50 [40]: 20.5 µM
- TGI [40]: 54.5 µM
- GI50 [41]: 19.5 µM
- TGI [41]: 41.4 µM
- GI50 [42]: 15.6 µM
- TGI [42]: 29.4 µM
- GI50 [43]: 27.5 µM
- TGI [43]: 83.1 µM
- GI50 [44]: 18.6 µM
- TGI [44]: 40.6 µM
- GI50 [45]: 15.1 µM
- TGI [45]: 32.1 µM
- GI50 [46]: 20.6 µM
- TGI [46]: 61.9 µM
- GI50 [47]: 2.56 µM
- TGI [47]: 13.9 µM
- GI50 [48]: 3.72 µM
- TGI [48]: 14.5 µM
- GI50 [49]: 15.5 µM
- TGI [49]: 39.5 µM
- GI50 [50]: 5.62 µM
- TGI [50]: 19 µM
- GI50 [51]: 18.6 µM
- TGI [51]: 39.5 µM
- GI50 [52]: 16.3 µM
- TGI [52]: 33.7 µM
- GI50 [53]: 4.19 µM
- TGI [53]: 18.9 µM

Compound: O=C1OC(c2ccccc2)=N/C1=C/c1cccs1
- TGI [3]: > 100 µM
- TGI [4]: > 100 µM
- TGI [6]: 75.1 µM
- TGI [9]: > 100 µM
- TGI [10]: > 100 µM
- TGI [12]: > 100 µM
- TGI [13]: 44.5 µM
- TGI [14]: > 100 µM
- TGI [15]: > 100 µM
- TGI [16]: > 100 µM
- TGI [54]: > 100 µM
- TGI [17]: > 100 µM
- TGI [18]: > 100 µM
- TGI [19]: > 100 µM
- TGI [21]: > 100 µM
- TGI [23]: > 100 µM
- TGI [25]: > 100 µM
- TGI [26]: 41.9 µM
- TGI [27]: > 100 µM
- TGI [29]: > 100 µM
- TGI [30]: 83.7 µM
- TGI [31]: > 100 µM
- TGI [32]: > 100 µM
- TGI [33]: > 100 µM
- TGI [34]: > 100 µM
- TGI [35]: > 100 µM
- TGI [36]: 44.9 µM
- TGI [37]: > 100 µM
- TGI [38]: > 100 µM
- TGI [39]: > 100 µM
- TGI [40]: > 100 µM
- TGI [55]: > 100 µM
- TGI [41]: > 100 µM
- TGI [43]: > 100 µM
- TGI [45]: > 100 µM
- TGI [46]: > 100 µM
- TGI [47]: > 100 µM
- TGI [48]: > 100 µM
- TGI [56]: > 100 µM
- TGI [50]: > 100 µM
- TGI [51]: > 100 µM

Compound: N#C/C(=C\c1ccc(Br)cc1)n1nnc2cc(F)c(F)cc21
- GI50 [1]: 1.67 µM
- TGI [1]: 3.18 µM
- GI50 [2]: 1.74 µM
- TGI [2]: 3.2 µM
- GI50 [3]: 2.14 µM
- TGI [3]: 5.62 µM
- GI50 [4]: 1.9 µM
- TGI [4]: 3.63 µM
- GI50 [57]: 1.74 µM
- TGI [57]: 4.51 µM
- GI50 [5]: 1.37 µM
- TGI [5]: 2.79 µM
- GI50 [6]: 1.48 µM
- TGI [6]: 8.81 µM
- GI50 [7]: 1.99 µM
- TGI [7]: 4.04 µM
- GI50 [10]: 2.02 µM
- TGI [10]: 3.67 µM
- GI50 [11]: 1.56 µM
- TGI [11]: 3.44 µM
- GI50 [12]: 1.34 µM
- TGI [12]: 2.93 µM
- GI50 [13]: 2.07 µM
- TGI [13]: 4.96 µM
- GI50 [14]: 1.93 µM
- TGI [14]: 4.27 µM
- GI50 [15]: 1.57 µM
- TGI [15]: 4.15 µM
- GI50 [16]: 2.71 µM
- TGI [16]: 8.3 µM
- GI50 [54]: 1.85 µM
- TGI [54]: 3.62 µM
- GI50 [17]: 1.74 µM
- TGI [17]: 3.77 µM
- GI50 [18]: 2 µM
- TGI [18]: > 100 µM
- GI50 [19]: 1.78 µM
- TGI [19]: 3.74 µM
- GI50 [20]: 1.55 µM
- TGI [20]: 2.98 µM
- GI50 [22]: 1.59 µM
- TGI [22]: 3.12 µM
- GI50 [24]: 2.23 µM
- TGI [24]: 5.92 µM
- GI50 [25]: 1.38 µM
- TGI [25]: 3.23 µM
- GI50 [26]: 2.7 µM
- TGI [26]: 8.65 µM
- GI50 [27]: 2.17 µM
- TGI [27]: 4.99 µM
- GI50 [28]: 1.76 µM
- TGI [28]: 3.44 µM
- GI50 [29]: 1.96 µM
- TGI [29]: 3.98 µM
- GI50 [58]: 1.35 µM
- TGI [58]: 3.25 µM
- GI50 [30]: 2.3 µM
- TGI [30]: > 100 µM
- GI50 [31]: 1.89 µM
- TGI [31]: 3.76 µM
- GI50 [32]: 1.95 µM
- TGI [32]: 6.09 µM
- GI50 [33]: 1.85 µM
- TGI [33]: 3.57 µM
- GI50 [34]: 1.69 µM
- TGI [34]: 3.99 µM
- GI50 [35]: 1.8 µM
- TGI [35]: 3.81 µM
- GI50 [36]: 2.01 µM
- TGI [36]: 4.76 µM
- GI50 [37]: 1.37 µM
- TGI [37]: 2.77 µM
- GI50 [39]: 1.58 µM
- TGI [39]: 3.27 µM
- GI50 [40]: 1.86 µM
- TGI [40]: 3.39 µM
- GI50 [55]: 1.76 µM
- TGI [55]: 3.4 µM
- GI50 [41]: 1.84 µM
- TGI [41]: 3.63 µM
- GI50 [42]: 1.76 µM
- TGI [42]: 3.17 µM
- GI50 [45]: 1.64 µM
- TGI [45]: 3.07 µM
- GI50 [48]: 1.55 µM
- TGI [48]: 3.32 µM
- GI50 [49]: 1.27 µM
- TGI [49]: 4.08 µM
- GI50 [56]: 2.16 µM
- TGI [56]: 5.56 µM
- GI50 [50]: 1.6 µM
- TGI [50]: 3.06 µM
- GI50 [52]: 1.46 µM
- TGI [52]: 3 µM
- GI50 [53]: 1.46 µM
- TGI [53]: 2.78 µM
